The results in this text go back to patent US20240158446A1, “CYCLIC COMPOUND HAVING SELECTIVE INHIBITORY ACTION ON KRAS OVER HRAS AND NRAS” (CHUGAI SEIYAKU KABUSHIKI KAISHA, priority 2021, published 2024).

Like-named read-outs stand apart in the source and are kept apart here. Where a SMILES comes first, the peptide text is derived from it. Bridges are numbered along the chain shown (N, C = ends). [ ]: non-standard residue; d: D form. The star is where a group is joined. hPhe(3-Cl-4-CF3) = N[C@@H](CCc1ccc(C(F)(F)F)c(Cl)c1)C(=O)O; NPrPhe(4-CF3) = CCCN[C@@H](Cc1ccc(C(F)(F)F)cc1)C(=O)O; NMeGly(cPent) = CN[C@H](C(=O)O)C1CCCC1; Pro(4,4-F2) = O=C(O)[C@@H]1CC(F)(F)CN1; NMeD = CN[C@@H](CC(=O)O)C(=O)O; NMeL = CN[C@@H](CC(C)C)C(=O)O; Morpholide = C1CN(*)CCO1; Ac5c = NC1(C(=O)O)CCCC1; Ac4c = NC1(C(=O)O)CCC1; NEtG = CCNCC(=O)O; Sar = CNCC(=O)O

Test [1] has as its target GDP-bound KRAS wild-type protein (Homo sapiens, UniProt P01116). Description: Binding to KRAS by surface plasmon resonance (SPR), Single Cycle Kinetics. Conditions: GDP-bound KRAS wild-type protein, read-out: KRAS KD. (In general: In SPR one partner is held on a chip, and binding of the other changes the refractive index at the surface.)
Test [2] has as its target GDP-bound NRAS wild-type protein (Homo sapiens, UniProt P01111). Description: Binding to NRAS by surface plasmon resonance (SPR), Single Cycle Kinetics. The following applies: SPR; for NRAS/KRAS (ratio of KD value with respect to NRAS to KD value with respect to KRAS) / NRAS/KRAS (ratio of KD value for NRAS to KD value for KRAS): GDP-bound NRAS wild-type protein vs GDP-bound KRAS wild-type protein.

For test [3], the target named is GDP-bound HRAS wild-type protein (Homo sapiens, UniProt P01112). Description: Binding to HRAS by surface plasmon resonance (SPR), Single Cycle Kinetics. The following applies: SPR; for HRAS/KRAS (ratio of KD value with respect to HRAS to KD value with respect to KRAS) / HRAS/KRAS (ratio of KD value for HRAS to KD value for KRAS): GDP-bound HRAS wild-type protein vs GDP-bound KRAS wild-type protein.

The mark [4] stands for this setting: SPR Single Cycle Kinetics, 1:1 binding model.

Sequence of GDP-bound NRAS wild-type protein (P01111 whole entry): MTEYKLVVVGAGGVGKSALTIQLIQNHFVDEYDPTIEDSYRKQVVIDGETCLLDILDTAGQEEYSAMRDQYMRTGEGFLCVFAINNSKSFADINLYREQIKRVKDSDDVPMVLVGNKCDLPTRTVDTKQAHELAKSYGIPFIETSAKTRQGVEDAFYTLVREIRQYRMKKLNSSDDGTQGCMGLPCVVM
Sequence of GDP-bound HRAS wild-type protein (P01112 whole entry): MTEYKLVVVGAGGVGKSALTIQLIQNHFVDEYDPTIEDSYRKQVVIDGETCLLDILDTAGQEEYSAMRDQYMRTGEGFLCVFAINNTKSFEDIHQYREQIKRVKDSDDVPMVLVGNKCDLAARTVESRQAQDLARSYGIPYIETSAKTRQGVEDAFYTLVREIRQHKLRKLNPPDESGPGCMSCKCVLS
Sequence of GDP-bound KRAS wild-type protein (P01116 whole entry): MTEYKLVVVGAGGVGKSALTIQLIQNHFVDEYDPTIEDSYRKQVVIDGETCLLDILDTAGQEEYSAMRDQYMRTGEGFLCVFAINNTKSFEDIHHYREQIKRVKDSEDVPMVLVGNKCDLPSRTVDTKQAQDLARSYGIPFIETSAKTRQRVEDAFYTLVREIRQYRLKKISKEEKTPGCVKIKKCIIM

`CC[C@H](C)[C@@H]1NC(=O)[C@H](CC(C)C)N(CC)C(=O)C[C@@H](C(=O)N2CCOCC2)N(C)C(=O)[C@H](C2CCCC2)N(C)C(=O)C2(CCCC2)NC(=O)[C@@H]2CCCN2C(=O)[C@H](CCc2cc(F)c(C(F)(F)F)c(F)c2)NC(=O)CN(C)C(=O)[C@H](Cc2ccc(C(F)(F)F)cc2)N2CCCC[C@@H](C2=O)N(C)C(=O)CN(C)C1=O` [PP0588]: in test [1] (setting [4]), the Kd was determined as 0.11 nM. Also, the “NRAS/KRAS (ratio of KD value with respect to NRAS to KD value with respect to KRAS)” value in test [2] was “B (a compound having 3 or more and less than 10 is denoted as B)”. The “HRAS/KRAS (ratio of KD value with respect to HRAS to KD value with respect to KRAS)” value in test [3] was “B (a compound having 3 or more and less than 10 is denoted as B)”.
With `CCCN1C(=O)CN(C)C(=O)CN(CC)C(=O)[C@H]([C@@H](C)CC)NC(=O)[C@H](CC(C)C)N(C)C(=O)C[C@@H](C(=O)N2CCOCC2)N(C)C(=O)[C@H](C2CCCC2)N(C)C(=O)C2(CCCC2)NC(=O)[C@@H]2CCCN2C(=O)[C@H](CCc2ccc(C(F)(F)F)c(Cl)c2)NC(=O)CN(C)C(=O)[C@@H]1Cc1ccc(C(F)(F)F)cc1` [PP0145] ([NMeL]I[NEtG][Sar][NPrPhe(4-CF3)][Sar][hPhe(3-Cl-4-CF3)]P[Ac5c][NMeGly(cPent)][NMeD]-Morpholide; lactam N-11), the Kd in test [1] (setting [4]) was 0.5 nM. Further, in test [2], the “NRAS/KRAS (ratio of KD value for NRAS to KD value for KRAS)” value is “B (a compound having 3 or more and less than 10 is denoted as B)”. Besides, the “HRAS/KRAS (ratio of KD value for HRAS to KD value for KRAS)” value in test [3] was “B (a compound having 3 or more and less than 10 is denoted as B)”.
As for `CCO[C@@H]1C[C@H]2C(=O)NC3(CC(C)(C)C3)C(=O)N(C)[C@@H](C3CCCC3)C(=O)N(C)[C@H](C(=O)N(C)CC)CC(=O)N(C)[C@H]3CCCC/C=C/c4ccc(cc4)C[C@@H](C(=O)N(C)CC(=O)N[C@@H](CCc4ccc(C(F)(F)F)c(OC)c4)C(=O)N2C1)N1CC/C=C\C[C@@H](C1=O)N(C)C(=O)CN(C)C(=O)[C@H]([C@@H](C)CC)NC3=O` [PP1830, (1S,7S,11R,13S,19S,22S,26S,29S,35S,37Z,47E)-19-cyclopentyl-11-ethoxy-N-ethyl-7-[2-[3-methoxy-4-(trifluoromethyl)phenyl]ethyl]-N,3,3′,3′,18,21,25,31,34-nonamethyl-29-[(1S)-1-methylpropyl]-2,5,8,14,17,20,24,27,30,33,55-undecaoxo-spiro[3,6,9,15,18,21,25,28,31,34,41-undecazapentacyclo[24.15.11.2^43,46.1^35,41.0^9,13]pentapentaconta-37,43(54),44,46(53),47-pentaene-16,1′-cyclobutane]-22-carboxamide], in test [1] (SPR, Single Cycle Kinetics), the Kd came to 0.054 nM. Moreover, the “NRAS/KRAS (KD ratio)” value in test [2] (ratio of KD for GDP-bound NRAS wild-type protein to KD for KRAS) is “A (a compound having 10 or more and less than 20 is denoted as A)”. Moreover, the “HRAS/KRAS (KD ratio)” value in test [3] (ratio of KD for GDP-bound HRAS wild-type protein to KD for KRAS) is “B (a compound having 3 or more and less than 10 is denoted as B)”.
For `CC[C@H](C)[C@@H]1NC(=O)[C@H](CC(F)(F)F)N(C)C(=O)C[C@@H](C(=O)N2CCOCC2)N(C)C(=O)[C@H](C2CCCC2)N(C)C(=O)C2(CCCC2)NC(=O)[C@@H]2CCCN2C(=O)[C@H](CCc2cc(F)c(C(F)(F)F)c(F)c2)NC(=O)CN(C)C(=O)[C@H](Cc2ccc(C(F)(F)F)cc2)N2CCCCC[C@@H](C2=O)N(C)C(=O)CN(C)C1=O` [PP0520], the Kd in test [1] (setting [4]) worked out at 0.99 nM. Further, the “NRAS/KRAS (ratio of KD value with respect to NRAS to KD value with respect to KRAS)” value in test [2] is “B (a compound having 3 or more and less than 10 is denoted as B)”. Moreover, in test [3], the “HRAS/KRAS (ratio of KD value with respect to HRAS to KD value with respect to KRAS)” value is “B (a compound having 3 or more and less than 10 is denoted as B)”.
For `CCC[C@H]1C(=O)N[C@@H](C(CC)CC)C(=O)N(C)CC(=O)N(C)[C@H]2C/C=C\CCN(C2=O)[C@@H](Cc2ccc(C)cc2)C(=O)N(C)CC(=O)N[C@@H](CCc2ccc(C(F)(F)F)c(Cl)c2)C(=O)N2C[C@H](OCC)C[C@H]2C(=O)NC2(CC(C)(C)C2)C(=O)N(C)[C@@H](CC(C)(C)C)C(=O)N(C)[C@H](C(=O)N(C)C)CC(=O)N1C` [PP2207], in test [1] (SPR, Single Cycle Kinetics), the Kd worked out at 0.79 nM. Moreover, the “NRAS/KRAS (ratio of KD value for NRAS to KD value for KRAS)” value in test [2] is “A (a compound having 10 or more and less than 20 is denoted as A)”. The “HRAS/KRAS (ratio of KD value for HRAS to KD value for KRAS)” value in test [3] is “A (a compound having 10 or more and less than 20 is denoted as A)”.
Take `CCO[C@@H]1C[C@H]2C(=O)NC3(CCC3)C(=O)N(C)[C@@H](C3CCCC3)C(=O)N(C)[C@H](C(=O)N(C)C)CC(=O)N(C)[C@@H](CC3CCCC3)C(=O)N[C@@H]([C@@H](C)CC)C(=O)N(C)CC(=O)N(C)[C@H]3C/C=C\CCN(C3=O)[C@@H](Cc3ccc(C)cc3)C(=O)N(C)CC(=O)N[C@@H](CCc3ccc(Cl)c(Cl)c3)C(=O)N2C1` [PP1487]: the Kd in test [1] (SPR, Single Cycle Kinetics, 1:1 binding model) came out at 0.34 nM. Also, the “NRAS/KRAS (ratio of KD value for NRAS to KD value for KRAS)” value in test [2] (KD ratio class) was “A (a compound having 10 or more and less than 20 is denoted as A)”. Further, in test [3] (KD ratio class), the “HRAS/KRAS (ratio of KD value for HRAS to KD value for KRAS)” value was “A (a compound having 10 or more and less than 20 is denoted as A)”.
As to `CC[C@H](C)[C@@H]1NC(=O)[C@H](CC(C)C)N(C)C(=O)C[C@@H](C(=O)N2CCOCC2)N(C)C(=O)[C@H](C2CCCC2)N(C)C(=O)C2(CCCC2)NC(=O)[C@@H]2CCCN2C(=O)[C@H](CCc2cc(F)c(C(F)(F)F)c(F)c2)NC(=O)CN(C)C(=O)[C@H](Cc2ccc(C(F)(F)F)cc2)N2CCCCC[C@@H](C2=O)N(C)C(=O)[C@@H]2CCN2C1=O` [PP0484], the Kd in test [1] (setting [4]) turned out to be 3.2 nM. In test [2], the “NRAS/KRAS (ratio of KD value with respect to NRAS to KD value with respect to KRAS)” value is “A (a compound having 10 or more and less than 20 is denoted as A)”. Besides, in test [3], the “HRAS/KRAS (ratio of KD value with respect to HRAS to KD value with respect to KRAS)” value was “B (a compound having 3 or more and less than 10 is denoted as B)”.
In the case of `CCCN1C(=O)CN(C)C(=O)CN(C)C(=O)[C@H]([C@@H](C)CC)NC(=O)[C@H](CC(C)C)N(C)C(=O)C[C@@H](C(=O)N2CCOCC2)NC(=O)[C@H](C2CCCC2)N(C)C(=O)C2(CCC2)NC(=O)[C@@H]2CC(F)(F)CN2C(=O)[C@H](CCc2ccc(C(F)(F)F)c(Cl)c2)NC(=O)CN(C)C(=O)[C@@H]1Cc1ccc(C(F)(F)F)cc1` [PP0322] ([NMeL]I[Sar][Sar][NPrPhe(4-CF3)][Sar][hPhe(3-Cl-4-CF3)][Pro(4,4-F2)][Ac4c][NMeGly(cPent)]D-Morpholide; lactam N-11), the Kd in test [1] (setting [4]) amounted to 0.84 nM. In addition, the “NRAS/KRAS (ratio of KD value for NRAS to KD value for KRAS)” value in test [2] was “B (a compound having 3 or more and less than 10 is denoted as B)”. In addition, the “HRAS/KRAS (ratio of KD value for HRAS to KD value for KRAS)” value in test [3] was “C (A compound having a KD ratio of 0.1 or more and less than 3 is denoted as C)”.
`CCO[C@@H]1C[C@H]2C(=O)NC3(CCC3)C(=O)N(C)[C@@H](C(C)C)C(=O)N(C)[C@H](C(=O)N(C)C)CC(=O)N(C)[C@@H](CC)C(=O)N[C@@H]([C@@H](C)CC)C(=O)N(C)CC(=O)N(C)[C@H]3C/C=C\CCN(C3=O)[C@@H](Cc3ccc(C(F)(F)F)cc3)C(=O)N(C)CC(=O)N[C@@H](CCc3cc(F)c(C(F)(F)F)c(F)c3)C(=O)N2C1` [PP1088]: in test [1] (SPR, Single Cycle Kinetics), the Kd is 0.55 nM. Besides, the “NRAS/KRAS (ratio of KD value for NRAS to KD value for KRAS)” value in test [2] is “A (a compound having 10 or more and less than 20 is denoted as A)”. The “HRAS/KRAS (ratio of KD value for HRAS to KD value for KRAS)” value in test [3] was “A (a compound having 10 or more and less than 20 is denoted as A)”.

For orientation: Kd means the free concentration of one partner at which half of the binding sites on the other are occupied at equilibrium, for simple one-to-one binding.
